The experiment relates to Chlamydomonas reinhardtii. The experiment in a line: 8-point dose response assay (0.25-30 μM). The format is cell-based. Also noted: reference not given here. To be noted: for Dose Response Assay 0.25 μM: 0.25 μM compound; for Dose Response Assay 0.625 μM: 0.625 μM compound; for Dose Response Assay 2.5 μM: 2.5 μM compound; for Dose Response Assay 5 μM: 5 μM compound; for Dose Response Assay 10 μM: 10 μM compound; for Dose Response Assay 15 μM: 15 μM compound; for Dose Response Assay 30 μM: 30 μM compound. The protocol: A large scale in vivo high throughput screen (HTS) was performed to identify small compounds that stimulate lipid production and accumulation using the model organism Chlamydomonas reinhardtii. The HTS employed a 384-well microplate format in which cells were allowed to grow in the presence of the test compounds at 10 μM final concentration for 72 hours.
The screening library included 43,736 compounds (ChemBridge, Corp). […] A sub-set of compounds were retested using an 8-point dose response assay (0.25-30 μM). Compounds were further assessed visually using a Nikon Ti-inverted microscope (60×) to reconfirm lipid droplet accumulation was induced.

Where [1] appears, read: 8-point dose response, Nile Red lipid accumulation.
[2] abbreviates: 1.25 μM compound, 8-point dose response, Nile Red lipid accumulation.

Molecules are shown by their SMILES. Read-outs that look alike come from different tables or passages of the source.

Turning to `O=C(Nc1ccc([N+](=O)[O-])cc1)c1c(F)c(F)c(F)c(F)c1F` [Compound 56], under setting [1], the “Dose Response Assay 0.25 μM” value is on record as 1.2, the “Dose Response Assay 0.625 μM” value turned out to be 1.2, the “Dose Response Assay 2.5 μM” value came out at 1.8 and the “Dose Response Assay 5 μM” value came to 2.58. Also, under setting [1], the “Dose Response Assay 10 μM” value worked out at 2.71, the “Dose Response Assay 15 μM” value stood at 1.74 and the “Dose Response Assay 30 μM” value is 1.92. Besides, the “Dose Response Assay 1.25 μM” value under setting [2] turned out to be 1.34.
`CCC1CCCCN1C(=O)c1ccc(Cl)cc1[N+](=O)[O-]` (centres unmarked) [Compound 57]: under setting [1], the “Dose Response Assay 0.25 μM” value stood at 0.99, the “Dose Response Assay 0.625 μM” value came out at 1.06, the “Dose Response Assay 2.5 μM” value came out at 0.90 and the “Dose Response Assay 5 μM” value was 1.28. Further, under setting [1], the “Dose Response Assay 10 μM” value was 1.11, the “Dose Response Assay 15 μM” value is listed as 1.15 and the “Dose Response Assay 30 μM” value came out at 1.87. Under setting [2], the “Dose Response Assay 1.25 μM” value was determined as 1.01.
With `O=C1CC(N2CCc3ccccc3C2)C(=O)N1c1ccc([N+](=O)[O-])cc1` (centres unmarked) [Compound 58], under setting [1], the “Dose Response Assay 0.25 μM” value stood at 1.06, the “Dose Response Assay 0.625 μM” value is reported as 0.94, the “Dose Response Assay 2.5 μM” value came to 0.90 and the “Dose Response Assay 5 μM” value was found to be 1.22. Also, under setting [1], the “Dose Response Assay 10 μM” value is 1.15, the “Dose Response Assay 15 μM” value worked out at 1.42 and the “Dose Response Assay 30 μM” value was found to be 1.56. In addition, the “Dose Response Assay 1.25 μM” value under setting [2] is 1.14.
In the case of `CCOc1c(Cl)cc(C(=O)Nc2cccc([N+](=O)[O-])c2)cc1Cl` [Compound 61], under setting [1], the “Dose Response Assay 0.25 μM” value is 0.90, the “Dose Response Assay 0.625 μM” value was 0.96, the “Dose Response Assay 2.5 μM” value is on record as 0.95 and the “Dose Response Assay 5 μM” value came to 1.04. For the same compound, under setting [1], the “Dose Response Assay 10 μM” value was 0.91, the “Dose Response Assay 15 μM” value turned out to be 1.24 and the “Dose Response Assay 30 μM” value is listed as 1.14. Under setting [2], the “Dose Response Assay 1.25 μM” value stood at 0.92.
With `COc1ccccc1N1CCN(Cc2ccc(Cl)cc2)CC1` [Compound 68], the “Dose Response Assay 1.25 μM” value was 1.28. For the same compound, under setting [1], the “Dose Response Assay 0.25 μM” value was determined as 1.07, the “Dose Response Assay 0.625 μM” value came to 1.05, the “Dose Response Assay 2.5 μM” value worked out at 2.15 and the “Dose Response Assay 5 μM” value came out at 2.1. In addition, under setting [1], the “Dose Response Assay 10 μM” value turned out to be 1.95, the “Dose Response Assay 15 μM” value is listed as 2.74 and the “Dose Response Assay 30 μM” value amounted to 2.03.
For the compound `Fc1ccc(CN2CCN(c3ccccc3Cl)CC2)cc1` [Compound 69], the “Dose Response Assay 1.25 μM” value was 1.29. Besides, under setting [1], the “Dose Response Assay 0.25 μM” value is on record as 1.05, the “Dose Response Assay 0.625 μM” value was determined as 0.96, the “Dose Response Assay 2.5 μM” value turned out to be 3.01 and the “Dose Response Assay 5 μM” value was found to be 2.44. Besides, under setting [1], the “Dose Response Assay 10 μM” value turned out to be 3.49, the “Dose Response Assay 15 μM” value came to 3.49 and the “Dose Response Assay 30 μM” value is given as 2.54.
Consider `CC(C)c1ccc(CN2CCN(C)CC2)cc1` [Compound 70], for which the “Dose Response Assay 1.25 μM” value was 2.19. Moreover, under setting [1], the “Dose Response Assay 0.25 μM” value is reported as 0.87, the “Dose Response Assay 0.625 μM” value was found to be 1.55, the “Dose Response Assay 2.5 μM” value was 4.4 and the “Dose Response Assay 5 μM” value was found to be 8.64. Besides, under setting [1], the “Dose Response Assay 10 μM” value is given as 7.57, the “Dose Response Assay 15 μM” value came to 11.05 and the “Dose Response Assay 30 μM” value is listed as 11.07.
For the compound `Cc1cccc(N2CCN(Cc3ccc([N+](=O)[O-])cc3)CC2)c1C` [Compound 74], the “Dose Response Assay 1.25 μM” value was 0.80.
In the case of `CCc1ccc(CN2CCN(c3ccccc3C)CC2)cc1` [Compound 84], the “Dose Response Assay 1.25 μM” value came out at 1. Also, under setting [1], the “Dose Response Assay 0.25 μM” value was 0.92, the “Dose Response Assay 0.625 μM” value is recorded as 0.89, the “Dose Response Assay 2.5 μM” value was determined as 2.5 and the “Dose Response Assay 5 μM” value stood at 2.05. Under setting [1], the “Dose Response Assay 10 μM” value stood at 1.64, the “Dose Response Assay 15 μM” value amounted to 2.19 and the “Dose Response Assay 30 μM” value worked out at 1.34.
As to `Brc1ccc(CN2CCN(c3ccccc3)CC2)cc1` [Compound 86], the “Dose Response Assay 1.25 μM” value is on record as 1.69. Under setting [1], the “Dose Response Assay 0.25 μM” value was found to be 0.98, the “Dose Response Assay 0.625 μM” value is 1.01, the “Dose Response Assay 2.5 μM” value came to 2.39 and the “Dose Response Assay 5 μM” value is 2.29. Besides, under setting [1], the “Dose Response Assay 10 μM” value was determined as 2.71, the “Dose Response Assay 15 μM” value amounted to 3.38 and the “Dose Response Assay 30 μM” value was 3.76.
Regarding `COc1cc(CN2CCN(Cc3ccccc3)CC2)cc(OC)c1` [Compound 99], the “Dose Response Assay 1.25 μM” value was 0.97. In addition, under setting [1], the “Dose Response Assay 0.25 μM” value was found to be 0.98, the “Dose Response Assay 0.625 μM” value turned out to be 0.84, the “Dose Response Assay 2.5 μM” value amounted to 1.4 and the “Dose Response Assay 5 μM” value worked out at 1.96. Moreover, under setting [1], the “Dose Response Assay 10 μM” value was found to be 2.96, the “Dose Response Assay 15 μM” value is reported as 3.37 and the “Dose Response Assay 30 μM” value came out at 4.22.
With `COc1cccc(CN2CCN(C(=O)c3cc(OC)c(OC)c(OC)c3)CC2)c1OC` [Compound 101], the “Dose Response Assay 1.25 μM” value is 1.14. Further, under setting [1], the “Dose Response Assay 0.25 μM” value turned out to be 1.03, the “Dose Response Assay 0.625 μM” value was determined as 1.08, the “Dose Response Assay 2.5 μM” value is recorded as 0.88 and the “Dose Response Assay 5 μM” value was 1.58. Under setting [1], the “Dose Response Assay 10 μM” value came out at 1.04, the “Dose Response Assay 15 μM” value came out at 1.43 and the “Dose Response Assay 30 μM” value is on record as 1.75.
For `CCN1CCN(Cc2ccc(N(CC)CC)cc2)CC1` [Compound 104], the “Dose Response Assay 1.25 μM” value came to 3.96. Moreover, under setting [1], the “Dose Response Assay 0.25 μM” value was 1.23, the “Dose Response Assay 0.625 μM” value was 3.68, the “Dose Response Assay 2.5 μM” value is recorded as 5.27 and the “Dose Response Assay 5 μM” value came to 4.04. Under setting [1], the “Dose Response Assay 10 μM” value was determined as 2.81, the “Dose Response Assay 15 μM” value stood at 3.28 and the “Dose Response Assay 30 μM” value was 3.69.
Regarding `Oc1ccc(Cl)cc1CN1CCN(Cc2ccccc2)CC1` [Compound 107], the “Dose Response Assay 1.25 μM” value came to 1.23. In addition, under setting [1], the “Dose Response Assay 0.25 μM” value is on record as 0.98, the “Dose Response Assay 0.625 μM” value worked out at 1.01, the “Dose Response Assay 2.5 μM” value was determined as 2.05 and the “Dose Response Assay 5 μM” value is on record as 2.31. Further, under setting [1], the “Dose Response Assay 10 μM” value was determined as 2.48, the “Dose Response Assay 15 μM” value was determined as 3.07 and the “Dose Response Assay 30 μM” value is recorded as 3.06.
For `COc1ccccc1C(=O)N1CCN(C(=O)C(c2ccccc2)c2ccccc2)CC1` [Compound 120], the “Dose Response Assay 1.25 μM” value came to 0.89. In addition, under setting [1], the “Dose Response Assay 0.25 μM” value is on record as 0.91, the “Dose Response Assay 0.625 μM” value was determined as 0.64, the “Dose Response Assay 2.5 μM” value was 1.12 and the “Dose Response Assay 5 μM” value was found to be 1.07. Besides, under setting [1], the “Dose Response Assay 10 μM” value stood at 2.15, the “Dose Response Assay 15 μM” value is 3.19 and the “Dose Response Assay 30 μM” value turned out to be 1.02.
Take `O=[N+]([O-])c1ccccc1CN1CCN(CC2CC3C=CC2C3)CC1` (centres unmarked) [Compound 124]: the “Dose Response Assay 1.25 μM” value is recorded as 0.99. The “Dose Response Assay 10 μM” value under setting [1] amounted to 0.88.
On to `CC(=O)NC1=C(N2CCN(Cc3ccccc3)CC2)C(=O)c2ccccc2C1=O` [Compound 134], for which the “Dose Response Assay 1.25 μM” value came out at 0.93. Also, under setting [1], the “Dose Response Assay 0.25 μM” value came to 0.97, the “Dose Response Assay 0.625 μM” value worked out at 1.06, the “Dose Response Assay 2.5 μM” value turned out to be 1.32 and the “Dose Response Assay 5 μM” value was determined as 1.77. For the same compound, under setting [1], the “Dose Response Assay 10 μM” value came out at 1.31, the “Dose Response Assay 15 μM” value came out at 1.97 and the “Dose Response Assay 30 μM” value worked out at 2.14.
Consider `Cl.Oc1ccccc1CNCCC12CC3CC(CC(C3)C1)C2` [Compound 148], for which, under setting [1], the “Dose Response Assay 0.25 μM” value was 0.94, the “Dose Response Assay 0.625 μM” value is listed as 1.04, the “Dose Response Assay 2.5 μM” value came to 1.32 and the “Dose Response Assay 5 μM” value was determined as 1.63. For the same compound, under setting [1], the “Dose Response Assay 10 μM” value is 1.39, the “Dose Response Assay 15 μM” value is given as 1.65 and the “Dose Response Assay 30 μM” value amounted to 1.45. For the same compound, the “Dose Response Assay 1.25 μM” value under setting [2] is 0.88.
